Read-outs that look alike come from different tables or passages of the source.
System: adjuvant-induced arthritis in rats
Test: Established adjuvant-induced arthritis in rats
Type: in vivo, rat (Charles River Lewis male rats)
Settings: for ED50: Rattus norvegicus, 24 h, read-out: Adjuvant Arthritis ED50; for % reduction at the indicated dose (paw volume, Adjuvant Arthritis): 9 mg/kg
[1] = oral by gavage, 7 daily doses, ED50% decrease from control paw volume (uninjected left hind paw), read one day after last dose

Structure (SMILES)	ED50 (po)	ED50 [1]	% reduction at the indicated dose (paw volume, Adjuvant Arthritis) (oral by gavage, 7 daily doses)
CC(=O)Oc1ccccc1C(=O)O [Aspirin, aspirin, reference compound]	305 mg/kg	–	–
CC(C)Cc1ccc(C(C)C(=O)O)cc1 (centres unmarked) [Ibuprofen, ibuprofen, reference compound]	–	100 mg/kg	–
O=S(=O)(c1nc2c([nH]1)COc1cc(Cl)c(Cl)cc1-2)C(F)(F)C(F)F [Example 2, 7,8-Dichloro-3,4-dihydro(or 1,4-dihydro)-2-[(1,1,2,2-tetrafluoroethyl)sulfonyl]-[1]benzopyrano[3,4-d]imidazole]	–	3.1 mg/kg	–
Fc1ccc2c(c1)OCc1[nH]c(SC(F)(F)C(F)F)nc1-2 [Example 5]	–	50 mg/kg	–
O=S(=O)(c1nc2c([nH]1)COc1cc(F)ccc1-2)C(F)(F)C(F)F [Example 6]	–	> 9 mg/kg	22%
CCCCC1C(=O)N(c2ccccc2)N(c2ccccc2)C1=O [Phenylbutazone, phenylbutazone, reference compound]	–	10 mg/kg	–
FC(F)C(F)(F)Sc1nc2c([nH]1)COc1cc(Cl)c(Cl)cc1-2 [Example 1, 7,8-Dichloro-3,4-dihydro(or 1,4-dihydro)-2-[(1,1,2,2-tetrafluoroethyl)-thio]-[1]benzopyrano[3,4-d]imidazole]	–	8.2 mg/kg	–
FC(F)C(F)(F)Sc1nc2c([nH]1)COc1ccc(Cl)cc1-2 [Example 4]	–	> 9 mg/kg	30%
COc1ccc2c(c1)c(CC(=O)O)c(C)n2C(=O)c1ccc(Cl)cc1 [Indomethacin, indomethacin, reference compound]	0.3 mg/kg	–	–
